Non-standard residues stand in square brackets, D forms with d. Residues, ends and D or L forms follow the SMILES beside them. Dip = N[C@H](C(=O)O)C(c1ccccc1)c1ccccc1
Tests used:
[1] = tested on: murine A20 B-cell lymphoma; test: Murine A20 B-cell lymphoma tumours in mice, dose levels; assay type: in vivo; details: for Mean tumour size at day 1: prior to start of treatment
Method: The administration took place by intratumoural injection of LTX-315 dissolved in sterile saline.
The mice were divided into four groups (see Table 8 below for details). The intratumoural treatment was initiated when the tumours had reached the desired size of approximately 5 mm in diameter (minimum of 20 mm^2).
Three dose levels of LTX-315, 1 mg (Group 1), 0.5 mg (Group 2) and 0.25 mg (Group 3) per injection, were investigated. The volume was 50 μl for all injections. LTX-315 was dissolved in sterile 0.9% NaCl water solution. This vehicle was used as control (Group 4). All four groups received three injections.
A caliper was used for tumour size measurements and weighing and physical examination were used as health control.

[2] = tested on: murine A20 B cell lymphoma cells; test: Re-challenge with A20 B-cell lymphoma in mice with complete regression; assay type: in vivo, Balb-c mice
Method: Methods: Female Balb-c mice (n=4), previously treated with LTX-315, 1 mg) or (n=9); previously treated with LTX-315 0.5 or 1 mg) were re-inoculated (s.c. in the abdominal area) with either murine A20 B cell lymphoma cells or CT26WT colon carcinoma cells (5 million) respectively 6 weeks following initial treatment with LTX-315. Tumour growth was monitored for up to 36 days following re-inoculation.

[3] = tested on: HL-60; assay type: cell-based, human; details: 24 h
Method: (§1) Tumor cells were plated in 96-well flat-bottom microtitration plates (Nunc, Dutscher, Brumath, France) and incubated at 37° C. for 24 hours before treatment in 190 μl of drug-free culture medium supplemented or not with 10% FBS for adherent or suspension growing cell lines, respectively.
(§2) The adherent cell lines were washed once with 200 μl FBS-free culture medium before treatment. […] top dose of 400 μM (range 4×10^−4 to 4×10^−10 M), with 1% (final concentration) Triton X-100 as positive control and FBS-free culture medium as negative control. The cells (190 μl) were incubated in a 200 μl final volume of FBS-free culture medium containing test substances at 37° C. under 5% CO2.
(§3) Three independent experiments were performed, each concentration being tested in quadruplicate. Control cells were treated with vehicle alone. At the end of treatments, the cytotoxic activity was evaluated by a MTS assay (see § 3.3.).
(§4) Like MTT, MTS is bioreduced by cells into a formazan product that is directly soluble in culture medium without processing, unlike MTT.
(§5) At the end of the cells treatment, 40 μl of a 0.22 μm filtered freshly combined solution of MTS (20 ml at 2 mg/ml, Ref G1111, Batch 235897, Exp March 2009, Promega, Charbonnières, France) and PMS (1 ml at 0.92 mg/ml, Ref P9625, Batch 065K0961, Sigma) in Dulbecco's Phosphate Buffered Saline (DPBS, Ref 17-513Q, Batch 6MB0152, Cambrex), were added in each well. Culture plates were incubated for 2 h at 37° C. Absorbency (OD) were measured at 490 nm in each well using VICTOR^3™ 1420 multilabeled counter (Wallac, PerkinElmer, Courtaboeuf, France).
(§6) IC50: drug concentration to obtain a 50% inhibition of cell proliferation.
(§7) The dose-response curves were plotted using XLFit 3 (IDBS, United Kingdom). The IC50 determination values were calculated using the XLFit 3 software from semi-log curves. Individual IC50 determination values as well as mean and SD values were generated.

[4] = tested on: MCF-7; assay type: cell-based, human; details: 24 h
Method: as §1, §2, §3, §4, §5, §6, §7

[5] = tested on: HUV-EC-C normal cell line; assay type: cell-based, human; details: 24 h
Method: as §1, §2, §3, §4, §5, §6, §7

[6] = tested on: K-562; assay type: cell-based, human; details: 24 h
Method: as §1, §2, §3, §4, §5, §6, §7

[7] = tested on: IGROV-1; assay type: cell-based, human; details: 24 h
Method: as §1, §2, §3, §4, §5, §6, §7

[8] = tested on: A375 cells; test: Release of HMGB1 (Western blot); assay type: cell-based, human; details: 35 μM, up to 60 min
Method: A375 cells were seeded with 3×10^5 cells/well in 6-well plates in a complete media, and allowed to adhere overnight. Cells were treated with LTX-315 or LTX-328 at 35 μM, and incubated at 37° C. and 5% CO2 for different time points (5, 10, 15, 30, 60 min), and negative controls were serum-free RPMI-1650. Supernatants (S) were collected and centrifuged at 1,400 g for five minutes, and cell lysates (L) were harvested after washing with PBS twice and then subsequently lysed using a 4× Sample buffer (Invitrogen, number), 0.1 M DTT (Sigma number) and water. Supernatants were concentrated using Amicon Ultra 50K centrifugal filters (Millipore UFC505024), and the cell lysate was sonicated. Both supernatants and lysate were boiled and resolved in a 10% sodium dodecyl sulfate polyacrylamide gel electrophoresis (SDS-PAGE), and then electro transferred to a polyvindiline difluoride (PVDF) membrane (Millipore). The membrane was blocked in 5% milk and incubated with the HMGB1 antibody (rabbit, polyclonal, abcam ab 18256); the membrane was then rinsed several times with TBST, incubated with a horseradish peroxidase (HRP)-conjugated secondary antibody (abcam ab6721), rinsed again with TBST and then developed using WB Luminol Reagent (Santa Cruz Biotechnology, Heidelberg, Germany).

[9] = tested on: human A547 cells; test: TEM, A547 cells; assay type: cell-based; details: 10 μg/ml, 60 minutes
[10] = Group 1: 1 mg intratumoural once daily days 1,2,3
[11] = Group 2: 0.5 mg intratumoural once daily days 1,2,3
[12] = Group 3: 0.25 mg intratumoural once daily days 1,2,3

SMILES: NCCCC[C@H](NC(=O)[C@@H](NC(=O)[C@H](Cc1c[nH]c2ccccc12)NC(=O)[C@H](CCCCN)NC(=O)[C@H](CCCCN)NC(=O)[C@H](Cc1c[nH]c2ccccc12)NC(=O)[C@H](Cc1c[nH]c2ccccc12)NC(=O)[C@H](CCCCN)NC(=O)[C@@H](N)CCCCN)C(c1ccccc1)c1ccccc1)C(N)=O [LTX-315, K-K-W-W-K-K-W-Dip-K-NH2] (H-KKWWKKW[Dip]K-NH2)
- Anti-tumour effect ([1]; 1 mg and 0.5 mg, first period of the study): strong and rapid anti tumour effect
- Mean tumour size on day 4 [1, 10]: 0 mm^2
- Mean tumour size on day 9 [1, 10]: 3.70 ± 2.40 mm^2
- Mean tumour size on day 14 [1, 10]: 12.43 ± 7.87 mm^2
- Mean tumour size at day 1 [1, 10]: 25.82 ± 0.80 mm^2
- Free of Tumour at end of Follow-Up ([1]; Group 1: 1 mg x3, n=7): 42.8% (3/7)
- Relapse of Tumour ([1]; Group 1: 1 mg x3, n=7): 25%
- Tumour Response: complete response ([1]; Group 1: 1 mg x3, n=7): 57.2% (4/7)
- Tumour Response: no response ([1]; Group 1: 1 mg x3, n=7): 0%
- Tumour Response: partial response ([1]; Group 1: 1 mg x3, n=7): 42.8% (3/7)
- Mean tumour size on day 4 [1, 11]: 0 mm^2
- Mean tumour size on day 9 [1, 11]: 11.41 ± 4.69 mm^2
- Mean tumour size on day 14 [1, 11]: 61.08 ± 23.84 mm^2
- Mean tumour size at day 1 [1, 11]: 22.03 ± 0.63 mm^2
- Free of Tumour at end of Follow-Up ([1]; Group 2: 0.5 mg x3, n=7): 28.57% (2/7)
- Relapse of Tumour ([1]; Group 2: 0.5 mg x3, n=7): 0% (0/2)
- Tumour Response: complete response ([1]; Group 2: 0.5 mg x3, n=7): 28.57% (2/7)
- Tumour Response: no response ([1]; Group 2: 0.5 mg x3, n=7): 0%
- Tumour Response: partial response ([1]; Group 2: 0.5 mg x3, n=7): 71.42%
- Anti-tumour effect ([1]; Group 3, 0.25 mg/dose, first days): a small inhibitory effect is observed during the first days
- Mean tumour size on day 4 [1, 12]: 20.60 ± 5.71 mm^2
- Mean tumour size on day 9 [1, 12]: 68.49 ± 12.74 mm^2
- Mean tumour size on day 14 [1, 12]: 69.42 ± 17.70 mm^2
- Mean tumour size at day 1 [1, 12]: 21.25 ± 0.64 mm^2
- Free of Tumour at end of Follow-Up ([1]; Group 3: 0.25 mg x3, n=9): 0%
- Tumour Response: complete response ([1]; Group 3: 0.25 mg x3, n=9): 0% (0/9)
- Tumour Response: no response ([1]; Group 3: 0.25 mg x3, n=9): 77.77%
- Tumour Response: partial response ([1]; Group 3: 0.25 mg x3, n=9): 22.22%
- Adverse events or toxic effects ([1]; all LTX-315 groups, intratumoural): Except from the wound formation no other adverse events or toxic effects were observed
- Treated mice with complete tumour response ([1]; optimal dose, Group 1 (1 mg x3)): 3 of 7
- Tumour growth after re-inoculation versus control animals ([2]; all 4 mice previously treated with LTX-315 1 mg, re-inoculated 6 weeks after treatment, P<0.006): Significant inhibition
- Mice with complete tumour regression after re-inoculation ([2]; of 4 mice previously treated with 1 mg): 3
- Animals with relapse after re-inoculation ([2]; of 4 mice, 3 weeks later): 1
- IC50 [3]: 2070 nM
- IC50 [4]: 1940 nM
- IC50 [5]: 23 µM
- IC50 [6]: 3.27 µM
- IC50 [7]: 6.37 µM
- HMGB1 translocation from cell lysate to supernatant [8]: gradual translocation from the cell lysate to the supernatant detected
- Effect on mitochondrial membrane (TEM) [9]: disintegration of the mitochondrial membrane

From US11123398B2, “Chemotherapeutic combinations of cationic antimicrobial peptides and chemotherapeutics” (LYTIX BIOPHARMA AS, priority 2014, dated 2021)
